Test results reported in US20070093538A1, “Preparation for the fungicidal and algicidal finish of alkaline coating compositions” (priority 2005, published 2007).

Test system: Scenedesmus cavuolatus (CS, Chlorella fusca)
Experiment: Determination of the resistance to colonization by algae (render coat on paper, media for algae)
Format: cell-based
Settings: +0.25% benzalkonium chloride, 50% strength, 5 month storage
Experimental: The unfinished material (commercially available render, pH 11.5) is treated, in separate batches, with different concentrations of the preservative A according to the invention.
The test was carried out once after the samples had been prepared and then after storage in wet render for 3 months or 5 months.
Laboratory method for determining the resistance of facade coats to colonization by algae. In this method, facade coats on standardized paper are used as the test substrate, and Scenedesmus cavuolatus (CS, Chlorella fusca) as the test alga.
The experiments are carried out in Petri dishes on media for algae.
1000 g of the material to be finished were, in separate batches, mixed with various concentrations of the test microbicide and homogenized using a suitable stirrer.
Paper supports (Schleicher & Schüll No. 2589 B/X 24078) 90×270 mm in size are coated with the test material. The paint or render samples are applied as a coat to wet-layer thickness of 250 μm, using a knife. The knife must have an opening of at least 6.5 cm in width. In the case of renders, the layer thickness depends on the particle size, as is the case under practice conditions. The coated supports, hereinbelow referred to as test specimens, are subsequently dried for 5 days in a horizontal position. […]
The colonization of the samples with algae is examined and evaluated after 2 weeks. […]

benzalkonium chloride [benzalkonium chloride, 50% strength]
Inhibitory zone in mm (first group of rows (leaching not given, presumably none)): >18 mm
Inhibitory zone in mm (second group of rows (leaching not given, presumably 72 h)): >18 mm
